Measured values reported in patent US20240279205A1, “NOVEL BENZIMIDAZOLE DERIVATIVE” (Carna Biosciences, Inc., priority 2020, published 2024).

What follows are compounds tested against T1, human STING (hSTING) (Homo sapiens, UniProt Q86WV6) (assay: Inhibition test of intracellular human STING (hSTING) pathway using SEAP reporter cells (HEK-Blue ISG), stimulation with Compound 3). Conditions: Compound 3 10 nM stimulation, 21 hours.
T1 construct: host or cells: HEK-Blue ISG cells (HEK293-derived SEAP reporter line)
T1 sequence (Q86WV6 whole entry H232R): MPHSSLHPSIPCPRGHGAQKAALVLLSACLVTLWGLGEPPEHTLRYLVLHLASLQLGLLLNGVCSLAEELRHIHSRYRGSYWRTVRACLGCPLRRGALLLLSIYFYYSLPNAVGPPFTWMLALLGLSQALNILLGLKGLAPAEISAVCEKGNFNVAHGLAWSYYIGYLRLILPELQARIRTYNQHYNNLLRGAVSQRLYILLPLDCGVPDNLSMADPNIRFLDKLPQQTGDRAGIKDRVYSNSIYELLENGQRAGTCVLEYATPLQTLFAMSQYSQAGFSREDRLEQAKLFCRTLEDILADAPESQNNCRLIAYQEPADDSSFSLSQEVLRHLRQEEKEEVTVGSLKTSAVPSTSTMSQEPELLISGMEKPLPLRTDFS
Assay type: cell-based
Set-up: hSTING inhibitory activity: scale not given here
Description: Inhibition test of intracellular human STING (hSTING) pathway using reporter cells
Since STING activates the transcription factor IRF3 upon ligand stimulation, the activity of STING can be evaluated by a reporter assay using a secretory alkaline phosphatase (SEAP reporter) integrated downstream of an IRF-inducible promoter.
That is, the hSTING inhibitory activity of the test compound was evaluated using HEK-Blue™MISG cells (manufactured by Invivogen, #hkb-isg-1) incorporating a SEAP reporter. Activation of hSTING was performed by stimulation with the small molecule ligand Compound 3 as described in the literature (Ramanjulu, J. M., et al., Nature. 2018, 564 (7736), 439-443). HEK-Blue™MISG cells were seeded in a 96-well plate and cultured overnight at 37° C. in a 5% CO2 incubator. To each well of this cell culture plate, a test compound solution adjusted to a final concentration of 0.1 to 10 µM of the test compound was added, cultured for 1 hour in a CO2 incubator, and then Compound 3 (final concentration 10 nM) was added and further cultured in a CO2 incubator for 21 hours. After collecting the culture supernatant of each well, the reporter activity was measured by color development reaction with alkaline phosphatase.
The reporter activity of the test compound non-addition and Compound 3 addition group was set to 100%, and the reporter activity of the test compound non-addition and Compound 3 non-addition group was set to 0%. The IC50 value was determined by regression analysis of the inhibitory rate determined from the reporter activity at each compound concentration and the test compound concentration (logarithm).
In the case of `C1=C(c2ccnc3c(Nc4nc5cc(Oc6ccccc6)ccc5[nH]4)c[nH]c23)CCCC1` [Embodiment 162, N-[7-(Cyclohex-1-en-1-yl)-1H-pyrrolo[3,2-b]pyridin-3-yl]-5-phenoxy-1H-benzo[d]imidazole-2-amine], the hSTING inhibitory activity is reported as “* *”.

Same assay, conditions: Compound 3 10 nM stimulation, 21 hours, read-out: hSTING inhibitory activity
In the case of `COCCOc1cc2nc(Nc3c[nH]c4ccc(Cl)nc34)[nH]c2cc1OCCOC` [Embodiment 143, N-(5-Chloro-1H-pyrrolo[3,2-b]pyridin-3-yl)-5,6-bis(2-methoxyethoxy)-1H-benzo[d]imidazol-2-amine], the IC50 is reported as ≥ 10 µM.
`CN(C)CC#Cc1ccc2[nH]c(Nc3c[nH]c4ccc(Cl)nc34)nc2c1` [Embodiment 146, N-(5-Chloro-1H-pyrrolo[3,2-b]pyridin-3-yl)-5-[3-(dimethylamino)prop-1-yn-1-yl]-1H-benzo[d] Imidazol-2-amine] was tested, and the IC50 was ≥ 10 µM.
In the case of `Clc1ccc2[nH]cc(Nc3nc4c(-c5cccnc5)cccc4[nH]3)c2n1` [Embodiment 147, N-(5-Chloro-1H-pyrrolo[3,2-b]pyridin-3-yl)-4-(pyridin-3-yl)-1H-benzo[d]imidazol-2-amine], the IC50 is reported as ≥ 10 µM.
For `Clc1ccc2[nH]cc(Nc3nc4c(-c5ccncc5)cccc4[nH]3)c2n1` [Embodiment 148, N-(5-Chloro-1H-pyrrolo[3,2-b]pyridin-3-yl)-4-(pyridin-4-yl)-1H-benzo[d]imidazol-2-amine], the IC50 was ≥ 10 µM.
`Clc1ccc2[nH]cc(Nc3nc4c(C5CCOCC5)cccc4[nH]3)c2n1` [Embodiment 150, N-(5-chloro-1H-pyrrolo[3,2-b]pyridin-3-yl)-4-(tetrahydro-2H-pyran-4-yl)-1H-benzo[d]imidazole-2-amine] was tested, and the IC50 was ≥ 10 µM.
`Cc1ccc2nc(Nc3c[nH]c4ccc(Cl)nc34)n(C)c2c1` [Embodiment 152, N-(5-Chloro-1H-pyrrolo[3,2-b]pyridin-3-yl)-1,6-dimethyl-1H-benzo [d]imidazol-2-amine] was tested, and the IC50 was ≥ 10 µM.
For `Cn1c(Nc2c[nH]c3ccc(Cl)nc23)nc2cc(C3CCOCC3)ccc21` [Embodiment 153, N-(5-chloro-1H-pyrrolo[3,2-b]pyridin-3-yl)-1-methyl-5-(tetrahydro-2H-pyran-4-yl)-1H-benzo[d] imidazol-2-amine], the IC50 was ≥ 10 µM.
`Cn1c(Nc2c[nH]c3ccc(Cl)nc23)nc2ccc(C3CCOCC3)cc21` [Embodiment 154, N-(5-chloro-1H-pyrrolo[3,2-b]pyridin-3-yl)-1-methyl-6-(tetrahydro-2H-pyran-4-yl)-1H-benzo[d] imidazol-2-amine] was tested, and the IC50 was ≥ 10 µM.
In the case of `Cn1c(Nc2c[nH]c3ccc(Cl)nc23)nc2c(F)cccc21` [Embodiment 155, N-(5-Chloro-1H-pyrrolo[3,2-b]pyridin-3-yl)-4-fluoro-1-methyl-1H-benzo[d]imidazol-2-amine], the IC50 is reported as ≥ 10 µM.
With `Cc1ccc2c(c1)nc(Nc1c[nH]c3ccc(Cl)nc13)n2C` [Embodiment 156, N-(5-Chloro-1H-pyrrolo[3,2-b]pyridin-3-yl)-1,5-dimethyl-1H-benzo [d]imidazol-2-amine] the IC50 was ≥ 10 µM.
In the case of `COc1ccc2nc(Nc3c[nH]c4ccc(Cl)nc34)n(C)c2c1` [Embodiment 161, N-(5-Chloro-1H-pyrrolo[3,2-b]pyridin-3-yl)-6-methoxy-1-methyl-1H-benzo[d]imidazol-2-amine], the IC50 is reported as ≥ 10 µM.
For `c1ccc(Oc2ccc3[nH]c(Nc4c[nH]c5c(-c6ccncc6)ccnc45)nc3c2)cc1` [Embodiment 163, 5-phenoxy-N-[7-(pyridin-4-yl)-1H-pyrrolo[3,2-b]pyridin-3-yl]-1H-benzo[d]imidazol-2-amine], the IC50 was ≥ 10 µM.
Work on `c1ccc(Oc2ccc3[nH]c(Nc4c[nH]c5c(-c6cccnc6)ccnc45)nc3c2)cc1` [Embodiment 164, 5-phenoxy-N-[7-(pyridin-3-yl)-1H-pyrrolo[3,2-b]pyridin-3-yl]-1H-benzo[d]imidazol-2-amine] yielded an IC50 of 1 to 10 µM.
`Cn1ccc(-c2ccnc3c(Nc4nc5cc(Oc6ccccc6)ccc5[nH]4)c[nH]c23)n1` [Embodiment 165, N-[7-(1-methyl-1H-pyrazol-3-yl)-1H-pyrrolo[3,2-b]pyridin-3-yl]-5-phenoxy-1H-benzo[d]imidazole-2-amine] showed an IC50 of 1 to 10 µM.
